Source: patent US11236087B2, “Highly active pyrazolo-piperidine substituted indole-2-carboxamides active against the hepatitis B virus (HBV)” (AiCuris GmbH & Co. KG, priority 2017, dated 2022)

Experiments:
HBV core protein = target: T1, HBV core protein (UniProt P03146); assay: Biochemical capsid assembly assay (fluorescence quenching); set-up: species or system hepatitis B virus; settings: read-out: Assembly Activity (IC50); BODIPY-FL labelled core protein, 300 μM NaCl, read 6 min after start
T1 construct: fused on or other part: BODIPY-FL maleimide label on the C-terminal Cys150
T1 sequence (P03146 whole entry, looked up, the tested form may be a part): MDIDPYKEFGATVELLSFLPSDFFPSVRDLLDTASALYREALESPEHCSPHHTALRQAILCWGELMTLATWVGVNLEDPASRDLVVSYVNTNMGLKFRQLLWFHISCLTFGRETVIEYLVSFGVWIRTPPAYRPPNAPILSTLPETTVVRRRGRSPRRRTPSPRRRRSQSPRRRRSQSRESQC
In short: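 Purified E. coli-expressed HBV core protein (aa 1-149 plus Cys150), BODIPY-FL maleimide-labelled, at 1.0-2.0 μM in 50 mM HEPES pH 7.5 with 0.5% DMSO was used. Compounds were tested at 8 concentrations (0.5-log dilutions from 100, 31.6 or 10 μM). Assembly was started with NaCl ([…]), and fluorescence quenching was read after 6 min (ex 477/em 525 nm). EC50 was determined by non-linear regression.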

HBV = assay: Determination of HBV DNA from the supernatants of HepAD38 cells (anti-HBV activity); type: cell-based, hepatitis B virus; settings: Hepatitis B virus, 144 h; HBV DNA in HepAD38 supernatant, day 6, qPCR; read-out: Cell Activity (EC50)
In short: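 HepAD38 cells, tetracycline withdrawn to induce HBV, treated with serial half-log compound dilutions; on day 6 HBV DNA purified from filtered supernatant and quantified by real-time PCR against HBV plasmid standards; EC50 from relative copy numbers by non-linear regression, three experiments in triplicate.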

[1] = Cell viability assay (AlamarBlue) in HepAD38 cells; settings: human

## Cc1cccc2[nH]c(C(=O)N3CCc4[nH]nc(C(=O)N(C)OCCO)c4C3)cc12 [Example 197, N-(2-hydroxyethoxy)-N-methyl-5-(4-methyl-1H-indole-2-carbonyl)-1H,4H,5H,6H,7H-pyrazolo[4,3-c]pyridine-3-carboxamide]
HBV core protein
  IC50: < 5 µM
HBV
  EC50: < 1 µM
[1]
  CC50 at 6 days: > 10 µM

## CN(OCCO)C(=O)c1n[nH]c2c1CN(C(=O)c1cc3ccccc3[nH]1)CC2 [Example 198, N-(2-hydroxyethoxy)-5-(1H-indole-2-carbonyl)-N-methyl-1H,4H,5H,6H,7H-pyrazolo[4,3-c]pyridine-3-carboxamide]
HBV core protein
  IC50: < 5 µM
HBV
  EC50: < 1 µM
[1]
  CC50 at 6 days: > 10 µM

## CN(C(=O)c1n[nH]c2c1CN(C(=O)c1cc3ccccc3[nH]1)CC2)C1CCOCC1 [Example 199, 5-(1H-indole-2-carbonyl)-N-methyl-N-(oxan-4-yl)-1H,4H,5H,6H,7H-pyrazolo[4,3-c]pyridine-3-carboxamide]
HBV core protein
  IC50: < 100 µM
HBV
  EC50: 1 to 25 µM
[1]
  CC50 at 6 days: > 10 µM

## [2H]C([2H])([2H])N(C(=O)c1n[nH]c2c1CN(C(=O)c1cc3ccccc3[nH]1)CC2)C1(COC)CC1 [Example 201, 5-(1H-indole-2-carbonyl)-N-[1-(methoxymethyl)cyclopropyl]-N-(2H3)methyl-1H,4H,5H,6H,7H-pyrazolo[4,3-c]pyridine-3-carboxamide]
HBV core protein
  IC50: < 5 µM
HBV
  EC50: < 1 µM
[1]
  CC50 at 6 days: > 10 µM

## COCC1(NC(=O)c2n[nH]c3c2CN(C(=O)c2cc4ccccc4[nH]2)CC3)CC1 [Example 202, 5-(1H-indole-2-carbonyl)-N-[1-(methoxymethyl)cyclopropyl]-1H,4H,5H,6H,7H-pyrazolo[4,3-c]pyridine-3-carboxamide]
HBV core protein
  IC50: < 5 µM
HBV
  EC50: < 1 µM
[1]
  CC50 at 6 days: > 10 µM

## O=C(c1cc2ccccc2[nH]1)N1CCc2[nH]nc(OC3CCCC3)c2C1 [Example 203, 2-[3-(cyclopentyloxy)-1H,4H,5H,6H,7H-pyrazolo[4,3-c]pyridine-5-carbonyl]-1H-indole]
HBV core protein
  IC50: 5 to 10 µM
HBV
  EC50: < 1 µM
[1]
  CC50 at 6 days: > 10 µM

## COCC1(N(C)C(=O)c2n[nH]c3c2CN(C(=O)c2cc4cc(F)ccc4[nH]2)CC3)CC1 [Example 204, 5-(5-fluoro-1H-indole-2-carbonyl)-N-[1-(methoxymethyl)cyclopropyl]-N-methyl-1H,4H,5H,6H,7H-pyrazolo[4,3-c]pyridine-3-carboxamide]
HBV core protein
  IC50: < 5 µM
HBV
  EC50: < 1 µM
[1]
  CC50 at 6 days: > 10 µM

## COCC1(N(C)C(=O)c2n[nH]c3c2CN(C(=O)c2cc4c(C(C)(F)F)cc(F)cc4[nH]2)CC3)CC1 [Example 205, 5-[4-(1,1-difluoroethyl)-6-fluoro-1H-indole-2-carbonyl]-N-[1-(methoxymethyl)cyclopropyl]-N-methyl-1H,4H,5H,6H,7H-pyrazolo[4,3-c]pyridine-3-carboxamide]
HBV core protein
  IC50: < 5 µM
HBV
  EC50: < 1 µM
[1]
  CC50 at 6 days: > 10 µM

## [2H]C([2H])([2H])OCC1(N(C)C(=O)c2n[nH]c3c2CN(C(=O)c2cc4ccccc4[nH]2)CC3)CC1 [Example 206, 5-(1H-indole-2-carbonyl)-N-{1-[(2H3)methoxymethyl]cyclopropyl}-N-methyl-1H,4H,5H,6H,7H-pyrazolo[4,3-c]pyridine-3-carboxamide]
HBV core protein
  IC50: < 5 µM
HBV
  EC50: < 1 µM
[1]
  CC50 at 6 days: > 10 µM

## CCOCC1(N(C)C(=O)c2n[nH]c3c2CN(C(=O)c2cc4ccccc4[nH]2)CC3)CC1 [Example 207, N-[1-(ethoxymethyl)cyclopropyl]-5-(1H-indole-2-carbonyl)-N-methyl-1H,4H,5H,6H,7H-pyrazolo[4,3-c]pyridine-3-carboxamide]
HBV core protein
  IC50: < 5 µM
HBV
  EC50: < 1 µM
[1]
  CC50 at 6 days: > 10 µM

## CC(C)OCC1(N(C)C(=O)c2n[nH]c3c2CN(C(=O)c2cc4ccccc4[nH]2)CC3)CC1 [Example 208, 5-(1H-indole-2-carbonyl)-N-methyl-N-{1-[(propan-2-yloxy)methyl]cyclopropyl}-1H,4H,5H,6H,7H-pyrazolo[4,3-c]pyridine-3-carboxamide]
HBV core protein
  IC50: < 5 µM
HBV
  EC50: < 1 µM
[1]
  CC50 at 6 days: > 10 µM

## CS(=O)(=O)c1n[nH]c2c1CN(C(=O)c1cc3ccccc3[nH]1)CC2 [Example 211, 2-{3-methanesulfonyl-1H,4H,5H,6H,7H-pyrazolo[4,3-c]pyridine-5-carbonyl}-1H-indole]
HBV core protein
  IC50: < 5 µM
HBV
  EC50: < 1 µM
[1]
  CC50 at 6 days: > 10 µM

## CN(C(=O)c1n[nH]c2c1CN(C(=O)c1cc3ccccc3[nH]1)CC2)C1CC1 [Example 232, N-cyclopropyl-5-(1H-indole-2-carbonyl)-N-methyl-1H,4H,5H,6H,7H-pyrazolo[4,3-c]pyridine-3-carboxamide]
HBV core protein
  IC50: < 5 µM
HBV
  EC50: < 1 µM
[1]
  CC50 at 6 days: > 10 µM

## CN(C(=O)c1n[nH]c2c1CN(C(=O)c1cc3ccccc3[nH]1)CC2)C1(CCC(=O)O)CC1 [Example 245, 3-{1-[N-methyl 5-(1H-indole-2-carbonyl)-1H,4H,5H,6H,7H-pyrazolo[4,3-c]pyridine-3-amido]cyclopropyl}propanoic acid]
HBV core protein
  IC50: 5 to 10 µM
HBV
  EC50: < 100 µM
[1]
  CC50 at 6 days: > 10 µM

## CCOC(=O)CCC1(N(C)C(=O)c2n[nH]c3c2CN(C(=O)c2cc4ccccc4[nH]2)CC3)CC1 [Example 246, ethyl 3-{1-[N-methyl 5-(1H-indole-2-carbonyl)-1H,4H,5H,6H,7H-pyrazolo[4,3-c]pyridine-3-amido]cyclopropyl}propanoate]
HBV core protein
  IC50: < 100 µM
HBV
  EC50: < 100 µM
[1]
  CC50 at 6 days: > 10 µM

## CN(CCC(=O)NS(=O)(=O)C1CC1)C(=O)c1[nH]nc2c1CN(C(=O)c1cc3ccccc3[nH]1)CC2 [Example 247, N-(cyclopropanesulfonyl)-3-{1-[5-(1H-indole-2-carbonyl)-2H,4H,5H,6H,7H-pyrazolo[4,3-c]pyridin-3-yl]-N-methylformamido}propanamide]
HBV core protein
  IC50: < 100 µM
HBV
  EC50: < 100 µM
[1]
  CC50 at 6 days: > 10 µM

## COCCC1(N(C)C(=O)c2[nH]nc3c2CN(C(=O)c2cc4ccccc4[nH]2)CC3)CC1 [Example 248, 5-(1H-indole-2-carbonyl)-N-[1-(2-methoxyethyl)cyclopropyl]-N-methyl-2H,4H,5H,6H,7H-pyrazolo[4,3-c]pyridine-3-carboxamide]
HBV core protein
  IC50: < 5 µM
HBV
  EC50: < 1 µM
[1]
  CC50 at 6 days: > 10 µM

## CN(C(=O)c1[nH]nc2c1CN(C(=O)c1cc3ccccc3[nH]1)CC2)C1(CO)COC1 [Example 249, N-[3-(hydroxymethyl)oxetan-3-yl]-5-(1H-indole-2-carbonyl)-N-methyl-2H,4H,5H,6H,7H-pyrazolo[4,3-c]pyridine-3-carboxamide]
HBV core protein
  IC50: < 5 µM
HBV
  EC50: < 1 µM
[1]
  CC50 at 6 days: > 10 µM

## CN(C(=O)c1[nH]nc2c1CN(C(=O)c1cc3ccccc3[nH]1)CC2)C1(C)COC1 [Example 251, 5-(1H-indole-2-carbonyl)-N-methyl-N-(3-methyloxetan-3-yl)-2H,4H,5H,6H,7H-pyrazolo[4,3-c]pyridine-3-carboxamide]
HBV core protein
  IC50: < 5 µM
HBV
  EC50: < 1 µM
[1]
  CC50 at 6 days: > 10 µM

## CN(C(=O)c1[nH]nc2c1CN(C(=O)c1cc3ccccc3[nH]1)CC2)[C@H]1CCC[C@@H]1O [Example 252, N-[(1S,2S)-2-hydroxycyclopentyl]-5-(1H-indole-2-carbonyl)-N-methyl-2H,4H,5H,6H,7H-pyrazolo[4,3-c]pyridine-3-carboxamide]
HBV core protein
  IC50: < 5 µM
HBV
  EC50: < 1 µM
[1]
  CC50 at 6 days: > 10 µM
